Data from BindingDB's records for doi:10.1021/jm9800245 (F. Hoffmann-La Roche, 1998).
Counter-ions that a name gives are not always drawn.

Key:
[1] = biological target: Beta-lactamase AmpC (Pseudomonas aeruginosa); assay: Inhibition of beta-lactamase of Pseudomonas aeruginosa 18 SH (class C)
[2] = Inhibition of beta-lactamase of Escherichia coli TEM-3 […]

SMILES | IC50 [1] [µM] | IC50 [2] [µM]
CC(C)(C)OC(=O)N1CC[C@@H]2C1C(=O)N2S(=O)(=O)O (stereo partly drawn) [(2S,5R)-7-Oxo-6-sulfo-2,6-diaza-bicyclo[3.2.0]heptane-2-carboxylic acid tert-butyl ester] | 1.5 | > 1000
NC(=O)c1ccc(NC(=O)N2CCC3C2C(=O)N3OS(=O)(=O)O)cc1 (configuration not stated) [sodium salt-Sulfuric acid mono-[2-(4-carbamoyl-phenylcarbamoyl)-7-oxo-2,6-diaza-bicyclo[3.2.0]hept-6-yl] ester] | 0.026 | –
CC(C)(C)OC(=O)N1CCC2C1C(=O)N2OS(=O)(=O)O (configuration not stated) [sodium salt-tert-butyl 7-oxo-6-(sulfooxy)-2,6-diazabicyclo[3.2.0]heptane-2-carboxylate] | 0.028 | 0.165
NC(=O)c1ccc(NC(=O)N2CC[C@@H]3C2C(=O)N3S(=O)(=O)O)cc1 (stereo partly drawn) [(2S,5R)-2-(4-Carbamoyl-phenylcarbamoyl)-7-oxo-2,6-diaza-bicyclo[3.2.0]heptane-6-sulfonic acid] | 0.217 | 9000
